One test relates to RKO +/+. As to the kind of experiment: Semi quantitative RT-PCR of AREG RNA in RKO cells after chemotherapy. The format is cell-based, human. The following applies: 48 h after treatment, 7.5 μM. On the procedure:
FIG. 1A illustrates analysis of AREG and beta actin RNA expression in RKO +/+ with/without either a 48 hour CPT11 treatment or 5-Fu treatment. RNA levels were analyzed following 35 cycle of PCR to determine relative differences in expression between treated and untreated samples;
Cells in a log phase of growth were seeded into T75 flask at ˜20% confluence and incubated overnight to allow adherence to the plate. […] Chemotherapy was substituted with saline in control flasks. After different time exposure to chemotherapy the cells were harvested, washed 3 times in PBS and total RNA was isolated using the RNA TAT-60 reagent according to the manufacturer instructions.
Reverse transcription was performed with 2.5 μg of RNA using a High Capacity cDNA Archive kit (Applied Biosystem) according to the instruction of the manufacturer.
Semi quantitative RT-PCR was performed using a PTC 225 Gradient Cycler (MJ Research Incorporated. The PCR mixture, in a final volume of 25 μL, contains 12.5 μL of 2× Biomix (Bioline, UK), 2 μL of primers (10 μmol/L), 1 μL of cDNA and 9.5 μL of dH2O). PCR conditions were initial denaturation step of 95 C for 10 minutes, followed by 35 cycles of 95° C. for 30 sec for denaturation; as annealing step 55° C. for 30 sec; and extension at 72° C. for 90 sec, with a final extension of 72° C. for 10 minutes. […]

Test [1] relates to HT29 colorectal cancer cells. Put plainly: RT-PCR of AREG mRNA in HT29 cells after chemotherapy. It is filed as cell-based, human. The following applies: IC50 dose, 48 hours. On the procedure:
FIG. 6 illustrates AREG upregulation following chemotherapeutic challenge in A) HT29, B) HCT116 and C) MDA-MB231 cells. Cells were treated with/without chemotherapy for 48 hours. RT-PCR was performed with 1 μg of total RNA using primer pairs specific for the human AREG gene or GAPDH. The PCR products were separated on 1.5% agarose gel electrophoresis and visualized by ethidium bromide staining.
For Example 2, Total RNA was isolated from cells following the RNA STAT-60 manufacturer's protocol (Biogenesis, Poole, U.K.). RT-PCR was performed with 1 μg of total cell RNA using a Promega ImProm-II™ Reverse Transcription System (Promega, Southhampton, UK). PCR was performed using primer pairs specific for human AREG (Forward 5′-[…]-3′(SEQ ID No:19), Reverse 5′-[…]-3′ (SEQ ID No:20)), human HB-EGF (Forward 5′-[…]-3′(SEQ ID No:21), Reverse 5′-[…]-3′(SEQ ID No:22)), human GAPDH as a control (Forward 5′[…]-3′(SEQ ID No:23), Reverse 5′ […]-3′(SEQ ID NO:24)) and human Beta-actin as a control (Forward 5′-[…]-3′(SEQ ID No:25), Reverse 5′-[…]-3′(SEQ ID No:26)).
The PCR products were separated on 1.5% agarose gel and visualized by ethidium bromide staining.

Another test deals with HCT116 cells. Put plainly: MTT assay, HCT116 cell proliferation. It is filed as cell-based, human. The note with it: siRNA 10 nM, CPT-11 3.5 μM, 48 hr, compared to untreated, mock, control siRNA. As for the experimental part: FIG. 8 illustrates HCT116 cell proliferation following AREG/HB-EGF silencing by siRNA and/or Chemotherapy treatment. Cells were transfected with AREG siRNA (10 nM), HB-EGF siRNA (10 nM) or a control siRNA (10 nM). […] Cell proliferation was analysed by MTT assay 48 hr after transfection/chemotherapy
FIG. 28 illustrates HCT116 cell proliferation after treatment with AREG antibody. Cell proliferation was analysed by MTT assay 48 hr after treatment.
FIG. 30 illustrates HCT116 cell proliferation after treatment with AREG antibody. Cell proliferation was analysed by MTT assay 48 hr after treatment.
FIG. 31 illustrates HCT116 cell proliferation after treatment with AREG antibody. Cell proliferation was analysed by MTT assay 48 hr after treatment
FIG. 33 illustrates HCT116 cell proliferation following HB-EGF silencing by siRNA and/or treatment with Anti AREG antibodies (6E11 1E92D8 & 6E11 1E9 106). Cells were transfected with HB-EGF siRNA (50 nM) or a control siRNA (50 nM). Cell proliferation was analysed by MTT assay 72 hr after transfection. […]
Cell viability was assessed by 3-(4,5-dimethylthiazol-2-yl)-2,5-diphenyltetrazolium bromide (MTT, Sigma) assay (Mosmann, T. 1983. J. Immunol. Methods 65:55-63). […] Cell viability was determined by reading the absorbance of each well at 570 nm using a microplate reader (Tecan Sunrise, Biorad, UK).

Test [2] concerns H460 lung carcinoma cell line. As to the kind of experiment: FACS analysis of cell surface AREG in H460 with or without irinotecan. The format is cell-based. The following applies: 2.5 μM for 48 hours. As for the experimental part: Following treatment cells were stained with AREG monoclonal antibodies and analysed by FACS
After 48 hours cells were washed in PBS and blocked for 20 minutes in Normal Goat Serum. 5×10^5 cells were incubated with AREG antibodies or isotype control for 2 hours and washed in PBS-T. The cells were incubated with a FITC conjugated goat anti-mouse antibody for 1 hour and washed in PBS-T before analysis on BD FACS canto.
For orientation: A flow cytometer gives signals particle by particle.

One compound from patent US20100111965A1, “COMBINATION THERAPY” (FUSION ANTIBODIES LIMITED, priority 2006, published 2010) can be followed below.

In the case of `CCc1c2c(nc3ccc(OC(=O)N4CCC(N5CCCCC5)CC4)cc13)-c1cc3c(c(=O)n1C2)COC(=O)[C@]3(O)CC` [CPT-11, irinotecan], the “AREG RNA expression (RT-PCR)” value in the test on RKO +/+ is listed as “upregulation”. In addition, in test [1], the “AREG mRNA expression (RT-PCR)” value was “up-regulation”. Further, in the test with HCT116 cells, the “effect on cell viability (MTT)” value is recorded as “no significant effect”. In test [2], the “AREG surface expression levels (FACS), detected by clones 3H5 and 3F8” value is recorded as “up-regulation in expression levels”.
